For one data set, the system named is housefly. Particulars: cited from earlier work.
The subject of the next data set is Tribolium castaneum. The data set can be described thus: Fumigation assay (fumigant toxicity) against adults of stored-product insects. Format: in vivo. Particulars: for LC50: Tribolium castaneum. On the procedure: (§1) Culturing of Insects: The stored product insect rice weevil (S. oryzae L.) was reared on whole wheat and the rust-red flour beetle (T. castaneum Herbst.) was reared on wheat flour with 5% yeast. Rice weevil and flour beetle were maintained at 23.6±2.5° C., 70% relative humidity and a photoperiod of 12:12 (Light:Dark). Corcyra cephalonica were reared on medium consisting of finely ground rice and maize flour in the ratio 1:1 (w/w) under laboratory conditions (27±1° C., 75±5% R.H. with a 12:12 h light:dark cycle.

A further data set concerns Sitophilus oryzae. The data set is described as above. Format: in vivo. To be noted: for LC50: Sitophilus oryzae. As to the method:
as §1

Data set [1] concerns C. arietinum (Chick pea) seeds. The data set can be described thus: Seed germination test. Format: in vivo. Particulars: for % germination (Mean ± SE): Chick pea. As to the method:
(§2) In order to assess the effect of isosecotanapartholide on plant growth and seed germination, particularly 50 seeds of Chickpea and Green gram sample were treated with isosecotanapartholide at 50 and 100 ppm and germination tests were done at […] and 72 hours of exposure treatments. From each sample, twenty grains seeds were randomly selected from the treatment and soaked for about 30 minutes in distilled water, and kept on filter paper (paper towel) in a petri dish, moistened everyday with distilled water, and allowed to germinate at room temperature (25±2° C.). After 48 and 72 hours, germinated seeds were counted and percentage germination was determined as in Radwan et al. 2019 (Annals of Agricultural Sciences, 64(2), 183-187). Three replications of each were made for both treatment and control.
(§3) From each sample, twenty grains seeds were randomly selected from the treatment and soaked for about 30 minutes in distilled water, and kept on filter paper (paper towel) in a petri dish, moistened everyday with distilled water, and allowed to germinate at room temperature (25±2° C.). After 48 and 72 hours, germinated seeds were counted and percentage germination was determined as in Radwan et al. 2019 (Annals of Agricultural Sciences, 64(2), 183-187). Three replications of each were made for both treatment and control.

Data set [2] relates to V. radiata (Green gram) seeds. The data set can be described thus: Seed germination test. Format: in vivo. To be noted: for % germination (Mean ± SE): Green gram. On the procedure: as §2, §3
Data set [3] deals with stored grain insect pests. The data set can be described thus: Fumigation assay, range over the tested species. On the procedure:
Measuring insecticidal activity of Isosecotanapartholide and Lemon grass oil (Cymbopogon flexuosus) by Fumigation Assay: The insecticidal activity of Isosecotanapartholide and lemon grass oil was assessed by fumigation assay against adults of stored-product insects (Corcyra cephalonica, Sitophilus oryzae and Tribolium castaneum). For each treatment, 50 individuals were tested for S. oryzae and T. castaneum; particularly adults were released into 0.85 L desiccators that served as the fumigation chambers. In each desiccator, a Whatman No. 1 filter circle (diameter: 9 cm) was placed to serve as an evaporating surface for injecting active extract. […] Five replicates were used for each dosage and LC50 was determined from dose response data using probit analysis. Insect mortality for isosecotanapartholide was recorded after 24 hours of exposure. Insects were considered dead when no leg or antennal movements were observed. Morality rate was calculated using Abbott formula for natural mortality in untreated (Abbott, 1925, Journal of Economic Entomology, 18, 265-267).
For each time point, 20 adults stored grain pests were used and determined percentage mortality.

In another data set the test system is C. arietinum plants. The data set can be described thus: Plant growth observation after seed treatment. Format: in vivo.
For the next data set, the system named is V. radiata plants. The data set can be described thus: Plant growth observation after seed treatment. Format: in vivo.
Another data set concerns Corcyra cephalonica. The data set can be described thus: Fumigation assay (fumigant toxicity) against adults of stored-product insects. Format: in vivo. To be noted: C. cephalonica adults, mortality after 24 hours of exposure. On the procedure:
as §1

Another data set deals with adults of S. oryzae. To be noted: 24 hours of exposure time; cited from earlier work.
[4] abbreviates: comparison with other fumigants, fumigation bioassay, read-out: LC50.
The mark [5] stands for this setting: comparison with other fumigants, fumigation bioassay.
Setting [6] is: in comparison with control, observed for 2 weeks.

Converted amounts (≈) assume the structure as drawn. Counter-ions that a name gives are not always drawn. Like-named read-outs stand apart in the source and are kept apart here.

By LC50 is commonly meant the concentration that kills 50% of the test population. On to `CC12CCC(CC1)C(C)(C)O2` [1,8 Cineole], for which the LD50 with housefly is reported as 118 μg/fly. The median lethal concentration (LC50) in the data set with Tribolium castaneum (setting [4]) worked out at 47 ng/mL (≈ 0.305 µM); in the data set with Sitophilus oryzae (setting [4]) it was 31 ng/mL (≈ 0.201 µM).

Regarding `Cc1ccc(C(C)C)cc1O` [Carvacol], the median lethal concentration (LC50) in the data set with Tribolium castaneum (setting [5]) came out at 17.0 ng/mL (≈ 0.113 µM); with Sitophilus oryzae (setting [5]), 14.2 ng/mL (≈ 0.0945 µM).

For the compound `CCOC=O` [Ethyl formate], the 50% lethal concentration (LC50) with Tribolium castaneum (setting [4]) worked out at 1.12 ng/mL; in the data set with Sitophilus oryzae (setting [4]) it was 0.72 ng/mL.

Regarding `C=C1C(=O)O[C@H](C2=C(C)[C@@H](O)CC2=O)[C@H]1CCC(C)=O` [Isosecotanapartholide, (4S,5S)-5-[(3S)-3-hydroxy-2methyl-5-oxocyclopent-1-en-1-yl]-3-methylidene-4-(3oxobutyl)dihydrofuran-2(3H)-one], the “adverse effect on seed germination” value in data set [1] (C. arietinum, in comparison with control) was “did not cause any adverse effect”; in [2] (V. radiata, in comparison with control) it was “did not cause any adverse effect”. Further, the “% germination (Mean ± SE)” value is reported as 96.00 ± 2.30% in data set [1] (50 PPM, 24 hours); 97.33 ± 1.33% in data set [1] (50 PPM, 72 hours); 94.67 ± 1.33% in [1] (100 PPM, 24 hours); 96.00 ± 2.30% in data set [1] (100 PPM, 72 hours); 93.33 ± 1.33% in [2] (50 PPM, 24 hours); 94.67 ± 1.33% in data set [2] (50 PPM, 72 hours). Moreover, the “% germination (Mean ± SE)” value was determined as 96.00 ± 2.30% in [2] (100 PPM, 24 hours) and 96.00 ± 2.30% in [2] (100 PPM, 72 hours). In data set [3], the LC50 values is 1.7 to 2.2 ng/mL. Besides, the LC90 range in data set [3] fell in the range of 3.2 to 4.0 ng/mL. Besides, the “response on plant growth” value is reported as “comparable to control” in the data set on C. arietinum plants (50 ppm, FIG. 4 (A)) and “comparable to control” in the data set with V. radiata plants (50 ppm, FIG. 4 (B)). For the same compound, the “adverse effect on plant growth” value with C. arietinum plants (setting [6]) and with V. radiata plants (setting [6]) was “did not cause any adverse effect” in each case. The LC90 with Tribolium castaneum (T. castaneum adults, fumigant toxicity, mortality after 24 hours of exposure) came out at 3.946 ng/mL (≈ 0.0142 µM); in the data set on Sitophilus oryzae (S. oryzae adults, fumigant toxicity, mortality after 24 hours of exposure) it was 3.274 ng/mL (≈ 0.0118 µM); in the data set with Corcyra cephalonica, 3.296 ng/mL (≈ 0.0118 µM). The 50% lethal concentration (LC50) in the data set on Tribolium castaneum (T. castaneum adults, fumigant toxicity, mortality after 24 hours of exposure, read-out: LC50) stood at 2.19 ng/mL (≈ 0.00787 µM); with Tribolium castaneum (setting [4]) it was 2.19 ng/mL (≈ 0.00787 µM); with Sitophilus oryzae (S. oryzae adults, fumigant toxicity, mortality after 24 hours of exposure, read-out: LC50), 1.82 ng/mL (≈ 0.00654 µM); in the data set on Sitophilus oryzae (setting [4]), 1.82 ng/mL (≈ 0.00654 µM); in the data set with Corcyra cephalonica (Corcyra cephalonica), 1.83 ng/mL (≈ 0.00658 µM).

`C=CC(C)(O)CCC=C(C)C` (centres unmarked) [Linalool]: the 50% lethal concentration (LC50) was found to be 49.8 ng/mL (≈ 0.323 µM) in the data set on Tribolium castaneum (setting [4]) and 39.2 ng/mL (≈ 0.254 µM) in the data set with Sitophilus oryzae (setting [4]).

Consider `CBr` [Methyl bromide], for which the median lethal concentration (LC50) in the data set on Tribolium castaneum (setting [4]) was 8.4 ng/mL; with Sitophilus oryzae (setting [4]), 3.6 ng/mL.

For `P` [Phosphine], the 50% lethal concentration (LC50) in the data set with Tribolium castaneum (setting [5]) was found to be 9.8 ng/mL (≈ 0.288 µM); in the data set with Sitophilus oryzae (setting [5]) it was 7.8 ng/mL (≈ 0.229 µM).

Take `C=CCN=C=S` [allylisothiocyanate]: in the data set on adults of S. oryzae, the concentration found toxic entry is recorded as “less than 6.3 μl/l”.

The values are drawn from patent US12543733B2 (priority 2020, dated 2026).
